Experimental findings from patent US4894388A, “Glycosidase inhibitors and use thereof” (priority 1988, dated 1990) are described below.

For assay [1], the target named is T1, cytosolic (neutral) α-D-mannosidase (Homo sapiens, UniProt Q9NTJ4).
T1 construct: Post mortem human liver, which had been stored at -20° C; from tissue; host or cells: post mortem human liver, 37,000 g supernatant; concanavalin A-Sepharose fraction
T1 sequence (Q9NTJ4 1-1040): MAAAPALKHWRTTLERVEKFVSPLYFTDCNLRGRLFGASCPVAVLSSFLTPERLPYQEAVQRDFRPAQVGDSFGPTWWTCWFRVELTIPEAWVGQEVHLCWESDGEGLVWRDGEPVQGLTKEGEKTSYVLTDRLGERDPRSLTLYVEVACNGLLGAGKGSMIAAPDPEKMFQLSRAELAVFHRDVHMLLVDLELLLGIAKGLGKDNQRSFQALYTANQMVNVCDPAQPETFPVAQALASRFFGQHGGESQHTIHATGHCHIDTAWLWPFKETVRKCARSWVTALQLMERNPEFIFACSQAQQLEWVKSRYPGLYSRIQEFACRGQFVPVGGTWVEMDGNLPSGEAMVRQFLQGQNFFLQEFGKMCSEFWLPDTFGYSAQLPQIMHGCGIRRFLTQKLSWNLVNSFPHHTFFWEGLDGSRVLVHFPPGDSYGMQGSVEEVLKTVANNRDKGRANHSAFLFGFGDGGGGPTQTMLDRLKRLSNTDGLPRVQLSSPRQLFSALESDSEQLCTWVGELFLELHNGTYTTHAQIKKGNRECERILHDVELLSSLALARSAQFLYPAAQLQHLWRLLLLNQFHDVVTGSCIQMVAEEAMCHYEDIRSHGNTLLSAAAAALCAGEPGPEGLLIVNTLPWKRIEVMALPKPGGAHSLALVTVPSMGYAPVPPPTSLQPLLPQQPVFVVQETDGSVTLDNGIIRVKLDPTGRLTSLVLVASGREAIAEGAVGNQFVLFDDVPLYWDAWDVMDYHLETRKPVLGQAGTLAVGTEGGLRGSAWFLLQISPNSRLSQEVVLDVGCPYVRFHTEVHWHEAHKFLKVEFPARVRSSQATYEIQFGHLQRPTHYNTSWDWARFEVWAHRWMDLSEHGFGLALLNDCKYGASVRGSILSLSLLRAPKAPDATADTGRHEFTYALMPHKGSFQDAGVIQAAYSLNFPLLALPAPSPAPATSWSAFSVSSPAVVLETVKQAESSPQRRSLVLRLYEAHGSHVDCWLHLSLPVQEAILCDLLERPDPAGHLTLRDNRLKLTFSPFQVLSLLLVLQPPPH
Description: Inhibition of cytosolic (neutral) α-D-mannosidase, fluorigenic 4-methylumbelliferyl glycoside substrate. Type of assay: biochemical. The settings on record: for inhibition at 1000 µM: 1 mM inhibitor, 0.5 mM substrate, pH 6.5, mean of 2-4 determinations. As to the method:
(§1) Post mortem human liver, which had been stored at -20° C. until required was homogenized in deionized water (50%, w/v) in a Potter-Elvehjem homogenizer and then centrifuged at 37,000 g for 30 min in an MSE 18 centrifuge. The resultant supernatant was used as the source of enzymic activities.
(§2) The glycosidase activities in an extract of normal human liver were assayed by using the appropriate fluorigenic 4-methylumbelliferyl glycoside substrate (Koch-Light, Haverhill, Suffolk, U.K.) with a concentration of 0.5 mM at the optimal pH of each enzyme [Burditt et al., Clin. Chim. Acta 140, 201-209 (1980)]. Human liver acidic (lysomal) and neutral (cystosolic) α-D-mannosidases were assayed similarly at their pH-optima, of 4.0 and 6.5, respectively, after separation by affinity chromatography on concanavalin A-Sepharose® (Pharmacia Ltd, Milton Keynes, Bucks, U.K.) [Phillips et al., Biochem. J. 153, 579-587 (1976)]. The residual intermediate (Golgi) α-mannosidase II activity in extracts of fibroblasts from a patient with the lysosomal storage disease, mannosidosis, was assayed at pH 5.75 using the synthetic substrate (Burditt et al, Ibid.). The specificity of the inhibitors was determined by assaying the glycosidases in the presence and absence of a 1 mM solution of each compound. The nature of the inhibition and the value of Ki were determined using the Dixon graphical procedure.
Enzymic activities were measured in the presence and absence of 1 mM inhibitor. Inhibition (%) was calculated as the fraction of activity lost in the presence of inhibitor. The values are means of two to four independent determinations.

The test system of assay [2] is α-D-mannosidase (multiple forms). The assay is described as follows: Inhibition of multiple forms of α-D-mannosidase. Type of assay: biochemical. To be noted: human liver. How it is done: as §1, §2
Another assay has as its system β-D-glucosidase. The assay is described as follows: Inhibition of β-D-glucosidase. To be noted: relative to α-D-mannosidase. Type of assay: biochemical, human. How it is done:
as §1, §2

What is called inhibition is the share of the control response that was lost under treatment. In the case of `CN1C[C@@H](O)[C@@H](O)[C@@H]1[C@@H](O)CO` [N-methyl DIA, N-methyl-1,4-dideoxy-1,4-imino-L-allitol], the inhibition at 1000 µM in assay [1] turned out to be 20%.

In turn, `OC[C@H](O)[C@H]1[C@H](O)[C@H](O)CN1Cc1ccccc1` [N-benzyl DIA, N-benzyl-1,4-dideoxy-1,4-imino-L-allitol] registered an inhibition at 1000 µM in assay [1] of 4%.

In the case of `OC[C@H](O)[C@@H]1NC[C@@H](O)[C@H]1O` [DIA, 1,4-dideoxy-1,4-imino-L-allitol], the “inhibition of multiple forms of α-D-mannosidase (in words)” value in assay [2] is on record as “moderately strong inhibitor”. Also, in assay [1], the inhibition at 1000 µM amounted to 61%. Besides, in assay [1] (relative to α-D-mannosidase II), the “inhibition of neutral cytosolic α-D-mannosidase (in words)” value is “to a lesser extent”. Further, the “inhibition of β-D-glucosidase (in words)” value with β-D-glucosidase was “to a lesser extent”.
